Experimental data published in patent publication US7498404B2, “Compositions, methods and uses for a novel family of peptides” (priority 2004, dated 2009).
Marks after values point to notes of the source that are not given here.

Columns and labels:
[1] = type: physicochemical
Gram-positive bacteria = assay: MIC against Gram-positive bacteria; type: cell-based; conditions: most Gram (+)
Procedure: (§1) MIC determination assays. Staphylococcal aureus was grown to mid-log phase in LB at 37° C., and diluted by 500-fold with fresh LB and dispensed into 96-well micro-titer plates. Different concentrations of peptides were added, and the micro-titer plates were incubated at 37° C. with shaking. A minimal inhibition concentration (MIC) was determined as the lowest peptide concentration that produced a clear well. All experiments were performed in triplicates, and highly consistent MICs were obtained.
(§2) For Gram (−) the following were the antimicrobial activities observed: E. coli: MIC>20 microgram/ml; Pseudomonas and Salmonella: MIC>100 microgram/ml.

E. coli = assay: MIC against E. coli; type: cell-based
Procedure: as §1, §2

Pseudomonas = assay: MIC against Pseudomonas; type: cell-based
Procedure: as §1, §2

Salmonella = assay: MIC against Salmonella; type: cell-based
Procedure: as §1, §2

S. cerevisiae = assay: Antifungal MIC; type: cell-based
Tetrahymena = assay: Anti-protozoal MIC; type: cell-based
Broiler Chicken [2] = assay: Growth promoting Studies 1-1 and 1-2 (21-day battery study); type: in vivo
straight run broilers [3] = assay: Growth promoting Studies 2-1 and 2-2, mash feed, batteries; type: in vivo, chicken
Procedure: Briefly, the peptide was used in a semi-purified form to study the growth and feed conversion of […] old straight run broilers in batteries (Studies 2-1 and 2-2). Two amounts were tested against a feed control, peptide at 6 ppm and peptide at 12 ppm, 12 repetitions were carried out per treatment with 4 birds per pen. The diet used in the study was as follows.

straight run broilers [4] = assay: Growth promoting Studies 3-1 and 3-2, pelleted starter feed, batteries; type: in vivo, chicken
Description: Eight (8) study repetitions per treatment were used, again with 4 birds per pen.

Broiler Chicken [5] = assay: Growth promoting Studies 4-1 and 4-2 with direct coccidial challenge; type: in vivo
[6] = Broiler floor pen trial, 42 days, natural colibacillosis challenge; type: in vivo, chicken
Procedure: A broiler floor pen trial to compare the performance of a new anti-microbial designated for this project as BT1583 alone and in combination with the widely used coccidiostat monensin (MON) to MON fed alone, MON in combination with the also widely used antimicrobial Bacitracin MD (BMD) and BMD alone.
The following levels of each treatment were evaluated:
The study design included 10 pens per treatment and 40 birds per pen housed on day of hatch. Two basal corn-soy based diets of decreasing protein (approximately 23 to 20%) and increasing metabolizable energy (approximately 1400 to 1455 kcal/lb) were used from Day 0 to 21 (starter feed) and Days 22 to 42 (grower feed), respectively. Treatment premixes were measured and blended into diets at required levels. Between days 0 and 21 mortality was less than 1% with all birds growing optimally and of high health across all groups.
Beginning on study day 22, the study director modulated house temperature and air flow to mimic industry conditions conducive to outbreaks of colibacillosis within naive broiler flocks. This was done to stimulate a natural challenge for this study. Mortality climbed to a house average of approximately 10% by Day 42. A majority of these deaths occurred in groups not receiving BT1583 or MON. Lesions were consistent with those of colibacillosis (air sac, pneumonia, peri-hepatitis, peri-carditis and extreme morbidity). All mortality was documented (weight at death and post-mortem observations). All birds and feeds were weighed at 42 days. All remaining birds were euthanized on Day 42 by asphyxiation with the carcasses submitted for rendering.
The following variables were tested: Response Variables: Gain Per Bird, Feed Per Gain, Mortality (%), Adjusted Feed Per Gain. F test from One Way ANOVA with one blocking factor=location, at Day 42 using 0.05 level of significance.
All Response Variables: LSD T-test procedure for pair-wise comparisons with Type 1 error of means when ANOVA F ratio is significant, overall significance level of 0.05 used. Lines below means (see Table 30, below) indicate groups with insignificant differences in means.
Adjusted Feed/Gain: The total weight of mortality in each pen was added to the final live weight, that value reduced by subtracting the initial weight and then dividing that value into the Total feed consumed to calculate the Adjusted Feed/Gain.

food-producing animals = assay: Growth promotion in food-producing animals (overall statement); type: in vivo, chicken
Description: Furthermore, unlike conventional antibiotics, the present invention may target the bacterial membrane, and there is currently not a drug target that can be altered with one or two mutations to allow development of drug resistance. […] Alternatively, but in no way limiting the present invention, the present invention may be used as an animal-use only antibiotic for bacterial infections. Also, to date, there has been no observed decrease in the growth promoting activity of the peptide.

carboxypeptidase Y = biological target: T1, carboxypeptidase Y (Saccharomyces cerevisiae, UniProt P00729)
T1 sequence (P00729 112-532): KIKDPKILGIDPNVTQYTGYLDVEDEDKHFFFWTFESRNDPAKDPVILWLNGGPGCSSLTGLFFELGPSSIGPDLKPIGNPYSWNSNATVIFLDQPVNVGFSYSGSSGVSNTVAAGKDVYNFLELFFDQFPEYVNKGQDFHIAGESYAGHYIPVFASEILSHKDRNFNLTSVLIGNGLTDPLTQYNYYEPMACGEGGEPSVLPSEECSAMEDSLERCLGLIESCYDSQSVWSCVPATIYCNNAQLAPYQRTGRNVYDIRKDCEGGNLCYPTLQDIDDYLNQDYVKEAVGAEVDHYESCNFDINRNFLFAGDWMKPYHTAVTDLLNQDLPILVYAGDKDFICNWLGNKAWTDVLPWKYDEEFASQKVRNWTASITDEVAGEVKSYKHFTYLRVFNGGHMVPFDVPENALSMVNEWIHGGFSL

[7] = Study 3-2, 12 ppm with Coban (vs Coban alone)
[8] = Study 4-1, 24 ppm with direct coccidial challenge
[9] = Study 4-2, 48 ppm with direct coccidial challenge
[10] = MON 99 ppm, BT1583 12 ppm, BMD 55 ppm, alone or combined

Me2Bmt-L-dO-I-V-V-dK-V-dL-K-dY-L-Vol [BT1583]
only known in vitro method to inactivate [1]: pH 1.0 plus 100 °C overnight
MIC (Gram-positive bacteria): 1 microgram/ml
MIC (E. coli): > 20 microgram/ml
MIC (Pseudomonas): > 100 microgram/ml
MIC (Salmonella): > 100 microgram/ml
MIC (S. cerevisiae): 50 microgram/ml
MIC (Tetrahymena): 25 microgram/ml
Additional weight gain (%) (Broiler Chicken [2]; Study 1-1, 10 ppm): 17%
Feed conversion improvement (point) (Broiler Chicken [2]; Study 1-1, 10 ppm): 7 point
Additional weight gain (%) (Broiler Chicken [2]; Study 1-2, 30 ppm): 17%
Feed conversion improvement (point) (Broiler Chicken [2]; Study 1-2, 30 ppm): 8 point
Additional weight gain (%) (straight run broilers [3]; Study 2-1, 6 ppm): 6.7%
Feed conversion improvement (point) (straight run broilers [3]; Study 2-1, 6 ppm): 9 point
Additional weight gain (%) (straight run broilers [3]; Study 2-2, 12 ppm): 11%
Feed conversion improvement (point) (straight run broilers [3]; Study 2-2, 12 ppm): 10 point
20-day cumulative weight gain, Mean (straight run broilers [3]; Table 9, 6 ppm in feed): 591.9750
20-day cumulative weight gain, Mean (straight run broilers [3]; Table 9, 12 ppm in feed): 618.9340
20-day cumulative weight gain, estimated marginal Mean (straight run broilers [3]; Table 11, 6 ppm in feed): 591.975
20-day cumulative weight gain, estimated marginal Mean (straight run broilers [3]; Table 11, 12 ppm in feed): 618.934
20-day cumulative weight gain, Duncan homogeneous subsets (straight run broilers [3]; Table 12, 6 ppm in feed): 591.9750
20-day cumulative weight gain, Duncan homogeneous subsets (straight run broilers [3]; Table 12, 12 ppm in feed): 618.9340
20-day cumulative feed conversion rate, Mean (straight run broilers [3]; Table 13, 6 ppm in feed): 1.5065
20-day cumulative feed conversion rate, Mean (straight run broilers [3]; Table 13, 12 ppm in feed): 1.4959
20-day cumulative feed conversion rate, estimated marginal Mean (straight run broilers [3]; Table 15, 6 ppm in feed): 1.506
20-day cumulative feed conversion rate, estimated marginal Mean (straight run broilers [3]; Table 15, 12 ppm in feed): 1.496
20-day cumulative feed conversion rate, Duncan homogeneous subsets (straight run broilers [3]; Table 16, 6 ppm in feed): 1.5065
20-day cumulative feed conversion rate, Duncan homogeneous subsets (straight run broilers [3]; Table 16, 12 ppm in feed): 1.4959
Additional weight gain (%) (straight run broilers [4]; Study 3-1, 12 ppm): 16%
Feed conversion improvement (point) (straight run broilers [4]; Study 3-1, 12 ppm): 9 point
Additional weight gain (%) (straight run broilers [4]; [7]): 5.4%
Feed conversion improvement (point) (straight run broilers [4]; [7]): 9 point
20-day cumulative weight gain, Mean (straight run broilers [4]; Table 18, BT1583 12 ppm, BMD 50 ppm, COB 90 ppm, alone or combined): 831.7396
21-day cumulative weight gain, estimated marginal Mean (straight run broilers [4]; Table 20, BT1583 12 ppm, BMD 50 ppm, COB 90 ppm, alone or combined): 831.740
21-day cumulative weight gain, Duncan homogeneous subsets (straight run broilers [4]; Table 21, BT1583 12 ppm, BMD 50 ppm, COB 90 ppm, alone or combined): 831.7396
20-day cumulative feed conversion rate, Mean (straight run broilers [4]; Table 22, BT1583 12 ppm, BMD 50 ppm, COB 90 ppm, alone or combined): 1.3308
21-day cumulative feed conversion rate, estimated marginal Mean (straight run broilers [4]; Table 24, BT1583 12 ppm, BMD 50 ppm, COB 90 ppm, alone or combined): 1.331
20-day cumulative feed conversion rate, Duncan homogeneous subsets (straight run broilers [4]; Table 25, BT1583 12 ppm, BMD 50 ppm, COB 90 ppm, alone or combined): 1.3308
Additional weight gain (%) (Broiler Chicken [5]; [8]): 7.1%
Feed conversion improvement (point) (Broiler Chicken [5]; [8]): 13 point
Additional weight gain (%) (Broiler Chicken [5]; [9]): 9.3%
Feed conversion improvement (point) (Broiler Chicken [5]; [9]): 17 point
efficacy against colibacillosis ([6]; 3 to 4 week old naive broiler chickens, simulated commercial conditions): highly effective
feed/gain advantage over monensin and BMD fed alone and in combination ([6]; Day 42): ≥ 10 point
weight gain advantage over monensin and BMD fed alone and in combination ([6]; Day 42): ≥ 20 point
Day 42 Feed/Gain [6, 10]: 1.722^ab
Day 42 Gain/Bird [6, 10]: 4.333^ab lb
Day 42 Mortality (%) ([6]; acute and chronic colibacillosis, MON 99 ppm, BT1583 12 ppm, BMD 55 ppm): 2.75^a %
Day 42 Adjusted Feed/Gain ([6]; adjusted for mortality weight, MON 99 ppm, BT1583 12 ppm, BMD 55 ppm): 1.704^ab
feed conversion improvement (food-producing animals): about 10 points
cleavage by carboxypeptidase Y (carboxypeptidase Y): resistant
